{
  "source": "patent US12569468B2",
  "about": "“Use of palovarotene in treatment against HBV virus” (YANG SHENG TANG COMPANY, LTD., priority 2020, dated 2026)",
  "key": {"HBV cccDNA": {"system": "HBV cccDNA", "experiment": "Southern blot detection of HBV cccDNA in infected HepG2-hNTCP 2B1", "format": "cell-based, hepatitis B virus", "settings": "5 μM, day 6 to day 12 after infection, compared with interferon IFNα 500 IU control group and blank group", "experimental": "Southern blot experiment was carried out on a 10 cm^2 culture plate. About 5×10^6 HepG2-hNTCP 2B1 cells were plated in each 10 cm^2 culture plate, and medium B was added. After the cells adhered, medium A was used for replacement to perform the induction with Doxycycline during the whole experiment. HBV infection was performed 4 days after the induction with Doxycycline, and the amount of HBV for infection was 1000 MOI. Before infection, HBV was diluted in medium C to obtain HBV solution, and the infection volume was 5 mL. During infection, the cell supernatant was first removed by suction, the HBV solution was added to the cells, the cells were incubated for 24 hours, then the supernatant was collected as the sample of Day 0. Then the cells were washed three times with PBS, and fresh medium A was used for replacement. After that, the supernatant was collected every two days for detection, fresh medium A was used for replacement. […]"}, "HBV": {"system": "HBV", "experiment": "Inhibitory effect on HBV infection in human primary hepatocytes (drug before infection)", "format": "cell-based, hepatitis B virus", "settings": "1, 5, 25 μM, treatment before infection, to day 8, p<0.05", "source_text": "Primary hepatocytes were isolated from humanized mice transplanted with primary human hepatocytes through perfusion technique (refer to: Foquet, Lander, et al. “Successful engraftment of human hepatocytes in uPA-SCID and FRG® KO mice.” Hepatocyte Transplantation. Humana Press, New York, NY, 2017. 117-130, Wan-Chun Li, et al. “Isolation and Culture of Adult Mouse Hepatocytes.” Mouse Cell Culture. Humana Press, 2010. 185-196.), directly cultured in 24-well plates (Collagen I pre-coated 24-well plates, purchased from Thermo Scientific) after counting (about 5×10^5 primary hepatocytes per well), and medium H was added to maintain hepatocyte morphology (refer to: Xiang, Chengang, et al. “Long-term functional maintenance of primary human hepatocytes in vitro.” Science 364.6438 (2019): 399-402.). After culturing for 24 hours, drug-containing medium H was used to replace the drug-free medium H to perform drug treatment for 24 hours, and then infection was carried out with HBV, and the amount of HBV for infection in each well was 2000 MOI. Before infection, HBV was first diluted in medium I to obtain HBV solution, and the infection volume was 250 μL/well. During infection, the cell supernatant was first removed by suction, the HBV solution was added to the cells, the cells were incubated for 24 hours, then the supernatant was collected as the sample of Day 0. Then the cells were washed 3 times with PBS that was warmed in bath at 37° C., and fresh drug-containing medium H (500 μL per well) was used for replacement, then the supernatant was collected every two days for detection, fresh drug-containing medium H was used for replacement, until the 8th day, all the supernatants and cells were collected for relevant detection. The detection items included HBsAg, HBeAg, HBV DNA, HBV cccDNA, and for the detection method, please refer to Example 1."}, "HepG2 hNTCP 2B1": {"system": "HepG2 hNTCP 2B1", "experiment": "Safety assessment, CCK-8 cell activity, HepG2-hNTCP 2B1", "format": "cell-based", "settings": "1 μM, 5 μM and 25 μM, 6 days treatment", "experimental": "(§1) This experiment was carried out in a 96-well culture plate, with 8×10^4 corresponding cells plated in each well, and the corresponding medium volume was 100 μL, in which each drug to be tested in the HepG2-hNTCP 2B1, HepaRG M14A and primary hepatocyte experimental groups had three final concentrations of 1 μM, 5 μM and 25 μM, each drug to be tested in the HepAD38 cell experimental group had two final concentrations of 1 μM and 5 μM (the drug was diluted with the corresponding medium to the final concentrations, specifically please refer to Example 1, Example 2, Example 4 and Example 5), and to the blank group the same volume of culture medium without drug was added. After the cells had grown to a suitable density, drug was added to perform treatment for 6 days, during which, the medium was changed every two days with fresh drug-containing medium. After the drug treatment, 110 μL of medium containing Beyotime CCK-8 cell activity detection reagent (purchased from Beyotime, Art. No. C0038) (the volume ratio of medium to CCK-8 reagent was 100:10) was used for replacement, the cells were incubated at 37° C. for 30 min, and then all the supernatant was collected for detection of absorbance. The absorbance value was read on PHOMO microplate reader purchased from Zhengzhou Autobio."}, "[1]": {"system": "human primary hepatocytes", "experiment": "Safety assessment, CCK-8 cell activity, human primary hepatocytes", "format": "cell-based", "settings": "1 μM, 5 μM and 25 μM, 6 days treatment", "experimental": "as §1"}},
  "data": [
    {"smiles": "CC1(C)CCC(C)(C)c2cc(Cn3cccn3)c(/C=C/c3ccc(C(=O)O)cc3)cc21", "note": "[Palovarotene]", "values": [
      {"measurement": "level of HBV cccDNA (Southern blot)", "setting": "HBV cccDNA", "result": "significantly lower"},
      {"measurement": "level of HBeAg in the cell supernatant", "setting": "HBV", "result": "significantly inhibit"},
      {"measurement": "level of HBsAg in the cell supernatant", "setting": "HBV", "result": "significantly inhibit"},
      {"measurement": "level of intracellular HBV DNA", "setting": "HBV", "result": "significantly inhibit"},
      {"measurement": "level of intracellular cccDNA", "setting": "HBV", "result": "significantly inhibit"},
      {"measurement": "CCK-8 absorbance value (cell activity) vs blank group", "setting": "HepG2 hNTCP 2B1", "result": "not significantly different"},
      {"measurement": "CCK-8 absorbance value (cell activity) vs blank group", "setting": "[1]", "result": "not significantly different"}
    ]}
  ]
}
